Assay type in all cases: cell-based
The test system of assay [1] is cancer cells. Nature of the assay: β-gal assay of adenovirus infectivity. The text has this:
(§1) That is, ALA and Fe can enhance antitumor effect, because they can increase the infectivity of adenovirus to cancer cells and the amount of virus production within the cells.

For assay [2], the system named is cancer cells. Nature of the assay: PFU assay of adenovirus production.
From the text: as §1

The test system of the next assay is Ovarian cancer cells HEY. Nature of the assay: Influence of Fe and ALA on the proliferation inhibitory effect of adenovirus AdE3-1A1.3B (FIG. 15-17). The protocol:
Ovarian cancer cells HEY were cultured in 12-well plate at a rate of 10,000 cells/well and FeSO4 was added at a concentration of 50 μg/ml, 5 μg/ml, 0.5 μg/ml or 0 μg/ml on the following day and the cytolysis type adenovirus AdE3-1A1.3B was added to all wells. The proliferation inhibitory effect of the adenovirus was evaluated by IC50 after five days.
Next, the ovarian cancer cell line HEY was cultured in a 12-well plate at a rate of 10,000 cells/well and 5-aminolevulinic acid (ALA) was added at a concentration of 50 μg/ml, 5 μg/ml, 0.5 μg/ml or 0 μg/ml on the following day and the cytolysis type adenovirus AdE3-1A1.3B was added to all wells. The proliferation inhibitory effect of the adenovirus was evaluated by IC50 after five days.
Furthermore, the ovarian cancer cell line HEY was cultured in a 12-well plate at a rate of 10,000 cells/well and FeSO4 was added at a concentration of 50 μg/ml, 5 μg/ml, 0.5 μg/ml or 0 μg/ml on the following day. In addition, the cytolysis type adenovirus AdE3-1A1.3B and 50 μg/ml of 5-aminolevulinic acid (ALA) were added to each well. Only the adenovirus was added to a control. The proliferation inhibitory effect of the adenovirus was evaluated by IC50 after five days.

Take `[Fe]` [Fe]: in the assay on cancer cells [1], the infectivity of adenovirus entry is “increased infectivity of adenovirus”. In addition, the “amount of adenovirus production” value in the assay with cancer cells [2] is “increased amount of adenovirus production”.
For ferrous sulfate [FeSO4], the “proliferation inhibitory effect to that of only adenovirus administration” value is on record as “about 200 fold” in the assay on Ovarian cancer cells HEY (0.5 μg/ml of FeSO4, 50 μg/ml of ALA and AdE3-1A1.3B, after five days); “about 700 fold” in the assay on Ovarian cancer cells HEY (5 μg/ml of FeSO4, 50 μg/ml of ALA and AdE3-1A1.3B, after five days); “about 8 fold” with Ovarian cancer cells HEY (5 μg/ml of FeSO4 and AdE3-1A1.3B, IC50 (vp/cell) after five days); “about 1,000 fold” in the assay on Ovarian cancer cells HEY (50 μg/ml of FeSO4, 50 μg/ml of ALA and AdE3-1A1.3B, after five days); “about 20 fold” with Ovarian cancer cells HEY (50 μg/ml of FeSO4 and AdE3-1A1.3B, IC50 (vp/cell) after five days).
Regarding `NCC(=O)CCC(=O)O` [ALA, 5-aminolevulinic acid, reference compound], the “proliferation inhibitory effect to that of only adenovirus administration” value with Ovarian cancer cells HEY (50 μg/ml of ALA and AdE3-1A1.3B, IC50 (vp/cell) after five days) is recorded as “about 100 fold”. The infectivity of adenovirus result in the assay with cancer cells [1] is “increased infectivity of adenovirus”. Moreover, the “amount of adenovirus production” value in the assay on cancer cells [2] is given as “increased amount of adenovirus production”.

Source of the values: patent US20070134202A1, “Cancer gene therapeutic drug” (priority 2003, published 2007).
